ChEMBL document CHEMBL1201862, “PubChem BioAssay data set” (2004)
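Tested at 5 concentrations; 48 h exposure; 96-well plates; endpoints linearly interpolated, else capped at highest concentration. GI50: concentration for 50% inhibition of growth.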 Active and inactive are the calls of the source. Cut-off read from the data, not from the text of the source: active = GI50 up to about 1.1 µM and inactive = higher.

Key:
Assay in all cases: NCI tumour cell line growth inhibition, 48 h
Hs-578T = system: Hs-578T
DLD-1 = system: DLD-1
DMS-114 = system: DMS-114
DMS-273 = system: DMS-273
KM-20L2 = system: KM-20L2
LXFL 529 = system: LXFL 529
SNB-78 = system: SNB-78
XF498 = system: XF498
RXF 631 = system: RXF 631

C/C(=N/O)c1cccc(Nc2nc3ccccc3c3[nH]c4ccccc4c23)c1
GI50 (Hs-578T): 3.24 µM (inactive)

COc1cc2c(cc1OC)C1=C(C=O)c3ccc(OC)c(OC)c3C(O)N1CC2 (stereo not given)
GI50 (Hs-578T): 23.9 µM (inactive)

CC(=O)Nc1cc2c3c(c1)CCCN3CCC2
GI50 (Hs-578T): > 100 µM (inactive)

COc1cc2cc(C(=O)N3C[C@@H](CCl)c4c3cc(N)c3ccccc43)[nH]c2c(OC)c1OC
GI50 (Hs-578T): 0.00738 µM (active)

O=c1c2cc([N+](=O)[O-])ccc2nc2n1CCCCC2
GI50 (Hs-578T): 43.3 µM (inactive)

CC(Oc1ccccc1Cl)C(=O)NN1C(=O)CSC1c1ccccc1 (stereo not given)
GI50 (Hs-578T): > 100 µM (inactive)

CC1CCN(c2cc(-c3cc4ccccc4o3)oc(=O)c2C#N)CC1
GI50 (DLD-1): > 100 µM (inactive) | GI50 (DMS-114): > 100 µM (inactive) | GI50 (DMS-273): > 100 µM (inactive) | GI50 (KM-20L2): > 100 µM (inactive) | GI50 (LXFL 529): > 100 µM (inactive) | GI50 (SNB-78): > 10 µM (inactive) | GI50 (XF498): > 100 µM (inactive)

COc1ccc(NC(=O)C(=O)Cc2ccc([N+](=O)[O-])c([N+](=O)[O-])c2CC(=O)C(=O)Nc2ccc(OC)cc2OC)c(OC)c1
GI50 (DLD-1): > 100 µM (inactive) | GI50 (DMS-114): > 100 µM (inactive) | GI50 (DMS-273): > 100 µM (inactive) | GI50 (KM-20L2): > 100 µM (inactive) | GI50 (LXFL 529): > 100 µM (inactive) | GI50 (RXF 631): > 100 µM (inactive) | GI50 (SNB-78): > 100 µM (inactive)

Cc1ccc(-c2cc(=O)c(=O)[nH][nH]2)cc1
GI50 (Hs-578T): 68.4 µM (inactive)

Cc1n[nH]c(=O)n1N=C(c1ccccc1)c1ccccc1
GI50 (Hs-578T): > 100 µM (inactive)

c1ccc(C2=C(c3ccccc3)Sc3nnc(CCCCCCCCc4nnc5n4NC(c4ccccc4)=C(c4ccccc4)S5)n3N2)cc1
GI50 (Hs-578T): 73.5 µM (inactive)

C=CCOc1ccc(C2c3c(n[nH]c3O)CC(C)(O)C2C(=O)OC)cc1OC (stereo not given)
GI50 (Hs-578T): > 100 µM (inactive)

CCOC(=O)c1cc(Cl)ccc1OC(N)=O
GI50 (DLD-1): > 100 µM (inactive) | GI50 (DMS-114): > 100 µM (inactive) | GI50 (DMS-273): > 100 µM (inactive) | GI50 (KM-20L2): > 100 µM (inactive) | GI50 (SNB-78): > 100 µM (inactive) | GI50 (XF498): > 100 µM (inactive)

S=C1C=C(c2ccccc2)Sc2ccccc2N1
GI50 (Hs-578T): 19.5 µM (inactive)

O=C1OCc2c1cc1cc3c(cc1c2-c1ccc2c(c1)OCO2)OCO3.O=C1OCc2cc3cc4c(cc3c(-c3ccc5c(c3)OCO5)c21)OCO4
GI50 (Hs-578T): 14.5 µM (inactive)

CN1C2CCC1CC(CCNC(c1ccccc1)c1ccccc1)C2 (stereo not given)
GI50 (Hs-578T): 29.9 µM (inactive)

N/C(=N\O)N/N=C/c1ccc2c(c1)OCCO2
GI50 (DLD-1): 19.7 µM (inactive) | GI50 (DMS-114): > 28.2 µM (inactive) | GI50 (DMS-273): 16.6 µM (inactive) | GI50 (KM-20L2): 4.13 µM (inactive) | GI50 (SNB-78): 57.7 µM (inactive) | GI50 (XF498): 8.79 µM (inactive)

Cc1cccc(NC(=O)C(=O)C(C(=O)c2ccccc2F)C2OC(=O)c3ccccc32)c1Cl (stereo not given)
GI50 (DLD-1): 27.9 µM (inactive) | GI50 (DMS-114): 17.5 µM (inactive) | GI50 (DMS-273): 24.7 µM (inactive) | GI50 (KM-20L2): 29.6 µM (inactive) | GI50 (LXFL 529): 24.3 µM (inactive) | GI50 (SNB-78): 32.6 µM (inactive) | GI50 (XF498): 19.7 µM (inactive)

C=C1C[C@@H]2CC[C@@]34CC5O[C@H]6C(O[C@H]7CC[C@H](CC(=O)O[C@@H]8[C@@H](C)[C@@H]9O[C@@H]%10C[C@]%11(C[C@@H]%12O[C@]%13(C[C@H](C)[C@@H]%14O[C@@H]%15CC(C(COC(C)=O)OC(C)=O)O[C@@H]%15C[C@@H]%14O%13)C[C@H](C)[C@@H]%12O%11)O[C@@H]%10C[C@@H]9O[C@H]8CC8O[C@@H](CC[C@@H]1O2)C[C@@H](C)C8(O)CO)O[C@@H]7[C@@H]6O3)[C@H]5O4 (stereo not given in full)
GI50 (Hs-578T): 0.272 µM (active)

CC[C@@H]1ON(C)[C@H]2CN(C)C(=O)[C@@H]12
GI50 (Hs-578T): > 100 µM (inactive)

CC/C=C\C/C=C\C/C=C\CCCCCCCC(=O)OCC
GI50 (DLD-1): > 100 µM (inactive) | GI50 (DMS-114): > 100 µM (inactive) | GI50 (KM-20L2): > 100 µM (inactive) | GI50 (LXFL 529): > 100 µM (inactive) | GI50 (XF498): 30.9 µM (inactive)

O=C1CC(C(COCc2ccccc2)OCc2ccccc2)CC(=O)N1 (stereo not given)
GI50 (Hs-578T): > 100 µM (inactive)

N#Cc1c2c(c(Nc3ccc(F)cc3)n3c1nc1ccccc13)CCCC2
GI50 (Hs-578T): 36.9 µM (inactive)

CCc1cccc(CC)c1NC1=CC(=O)C(=O)c2ccccc21
GI50 (DLD-1): 15.6 µM (inactive) | GI50 (DMS-114): 12.4 µM (inactive) | GI50 (DMS-273): 19.2 µM (inactive) | GI50 (KM-20L2): 19.8 µM (inactive) | GI50 (LXFL 529): 19.4 µM (inactive) | GI50 (RXF 631): 13.8 µM (inactive) | GI50 (SNB-78): 26.3 µM (inactive)

O=C1NCCCC12CCCNC2=O
GI50 (DMS-114): > 100 µM (inactive) | GI50 (DMS-273): > 100 µM (inactive) | GI50 (KM-20L2): > 100 µM (inactive) | GI50 (LXFL 529): > 100 µM (inactive) | GI50 (XF498): > 100 µM (inactive)

Cc1ccc(/C=C/C(=O)c2cc(CN(C)C)c(O)c(CN(C)C)c2)cc1
GI50 (Hs-578T): 29.8 µM (inactive)

COc1ccc2nc3cc([N+](=O)[O-])ccc3c(Nc3ccc(S(=O)(=O)Nc4ncccn4)cc3)c2c1
GI50 (Hs-578T): 12.4 µM (inactive)

Oc1cc(O)c2ccc(-c3ccc(O)c(O)c3)[o+]c2c1
GI50 (Hs-578T): > 100 µM (inactive)

O=C(COc1ccc(OCC(=O)NNC2=NC(c3cc(F)c(Cl)cc3Cl)CS2)c(Cl)c1)NNC1=NC(c2cc(F)c(Cl)cc2Cl)CS1 (stereo not given)
GI50 (Hs-578T): 20.6 µM (inactive)

COC1(OC)C2(Cl)C(Cl)=C(Cl)C1(Cl)C1COCC12 (stereo not given)
GI50 (Hs-578T): > 100 µM (inactive)

CC(C)(C1=NC(C(C)(C)C)CO1)C1=N[C@@H](C(C)(C)C)CO1 (stereo not given in full)
GI50 (DLD-1): > 100 µM (inactive) | GI50 (DMS-114): > 100 µM (inactive) | GI50 (DMS-273): > 100 µM (inactive) | GI50 (KM-20L2): > 100 µM (inactive) | GI50 (LXFL 529): > 100 µM (inactive) | GI50 (XF498): > 100 µM (inactive)

CCc1cc(Cc2cc(CC)c(NC(=O)C(=O)CC(=O)c3sc(-c4cccnc4)nc3C)c(CC)c2)cc(CC)c1NC(=O)C(=O)CC(=O)c1sc(-c2cccnc2)nc1C
GI50 (Hs-578T): > 100 µM (inactive)

O=C1NC(=S)NC(=O)C1=Cc1ccc(-c2ccccc2)cc1
GI50 (Hs-578T): 79.4 µM (inactive)
